Experiment: Adverse events graded by NCI CTCAE v4.0, all reported regardless of attribution
Format: in vivo, human

Compound: CC(=O)c1c(C)c2cnc(Nc3ccc(N4CCNCC4)cn3)nc2n(C2CCCC2)c1=O [palbociclib]
- most common toxicity (Stratum I and II): myelosuppression
- Alanine aminotransferase increased, episodes (Stratum I, grade 1): 4(4)
- Alanine aminotransferase increased, patients (Stratum I, grade 1): 4(4)
- Anemia, episodes (Stratum I, grade 1): 7
- Anemia, patients (Stratum I, grade 1): 5
- Ataxia, episodes (Stratum I, grade 1): 1(1)
- Ataxia, patients (Stratum I, grade 1): 1(1)
- Constipation, episodes (Stratum I, grade 1): 8
- Constipation, patients (Stratum I, grade 1): 6
- Diarrhea, episodes (Stratum I, grade 1): 4
- Diarrhea, patients (Stratum I, grade 1): 3
- Dry skin, episodes (Stratum I, grade 1): 3(3)
- Dry skin, patients (Stratum I, grade 1): 3(3)
- Fatigue, episodes (Stratum I, grade 1): 7(7)
- Fatigue, patients (Stratum I, grade 1): 7(7)
- Headache, episodes (Stratum I, grade 1): 4
- Headache, patients (Stratum I, grade 1): 3
- Hypokalemia, episodes (Stratum I, grade 1): 5
- Hypokalemia, patients (Stratum I, grade 1): 4
- Lymphocyte count decreased, episodes (Stratum I, grade 1): 22
- Lymphocyte count decreased, patients (Stratum I, grade 1): 8
- Mucositis oral, episodes (Stratum I, grade 1): 5
- Mucositis oral, patients (Stratum I, grade 1): 2
- Nausea, episodes (Stratum I, grade 1): 4
- Nausea, patients (Stratum I, grade 1): 3
- Neutrophil count decreased, episodes (Stratum I, grade 1): 8
- Neutrophil count decreased, patients (Stratum I, grade 1): 5
- Platelet count decreased, episodes (Stratum I, grade 1): 28
- Platelet count decreased, patients (Stratum I, grade 1): 10
- Vomiting, episodes (Stratum I, grade 1): 5
- Vomiting, patients (Stratum I, grade 1): 4
- White blood cell decreased, episodes (Stratum I, grade 1): 14
- White blood cell decreased, patients (Stratum I, grade 1): 9
- Anemia, episodes (Stratum I, grade 2): 2(2)
- Anemia, patients (Stratum I, grade 2): 2(2)
- Ataxia, episodes (Stratum I, grade 2): 3(3)
- Ataxia, patients (Stratum I, grade 2): 3(3)
- Fatigue, episodes (Stratum I, grade 2): 3(3)
- Fatigue, patients (Stratum I, grade 2): 3(3)
- Gait disturbance, episodes (Stratum I, grade 2): 2(2)
- Gait disturbance, patients (Stratum I, grade 2): 2(2)
- Headache, episodes (Stratum I, grade 2): 3
- Headache, patients (Stratum I, grade 2): 2
- Hypokalemia, episodes (Stratum I, grade 2): 1(1)
- Hypokalemia, patients (Stratum I, grade 2): 1(1)
- Lymphocyte count decreased, episodes (Stratum I, grade 2): 17
- Lymphocyte count decreased, patients (Stratum I, grade 2): 4
- Mucositis oral, episodes (Stratum I, grade 2): 5
- Mucositis oral, patients (Stratum I, grade 2): 2
- Nausea, episodes (Stratum I, grade 2): 1(1)
- Nausea, patients (Stratum I, grade 2): 1(1)
- Neutrophil count decreased, episodes (Stratum I, grade 2): 26
- Neutrophil count decreased, patients (Stratum I, grade 2): 7
- Vomiting, episodes (Stratum I, grade 2): 1(1)
- Vomiting, patients (Stratum I, grade 2): 1(1)
- White blood cell decreased, episodes (Stratum I, grade 2): 37
- White blood cell decreased, patients (Stratum I, grade 2): 14
- Ataxia, episodes (Stratum I, grade 3): 1(1)
- Ataxia, patients (Stratum I, grade 3): 1(1)
- Gait disturbance, episodes (Stratum I, grade 3): 1(1)
- Gait disturbance, patients (Stratum I, grade 3): 1(1)
- Lymphocyte count decreased, episodes (Stratum I, grade 3): 12
- Lymphocyte count decreased, patients (Stratum I, grade 3): 7
- Muscle weakness left-sided, episodes (Stratum I, grade 3): 3(3)
- Muscle weakness left-sided, patients (Stratum I, grade 3): 3(3)
- Nausea, episodes (Stratum I, grade 3): 1(1)
- Nausea, patients (Stratum I, grade 3): 1(1)
- Neutrophil count decreased, episodes (Stratum I, grade 3): 27
- Neutrophil count decreased, patients (Stratum I, grade 3): 9
- Vomiting, episodes (Stratum I, grade 3): 1(1)
- Vomiting, patients (Stratum I, grade 3): 1(1)
- White blood cell decreased, episodes (Stratum I, grade 3): 19
- White blood cell decreased, patients (Stratum I, grade 3): 3
- Neutrophil count decreased, episodes (Stratum I, grade 4): 3(3)
- Neutrophil count decreased, patients (Stratum I, grade 4): 3(3)
- Alanine aminotransferase increased, episodes (Stratum I, overall): 4(4)
- Alanine aminotransferase increased, patients (Stratum I, overall): 4(4)
- Anemia, episodes (Stratum I, overall): 9
- Anemia, patients (Stratum I, overall): 7
- Ataxia, episodes (Stratum I, overall): 5(5)
- Ataxia, patients (Stratum I, overall): 5(5)
- Constipation, episodes (Stratum I, overall): 8
- Constipation, patients (Stratum I, overall): 6
- Diarrhea, episodes (Stratum I, overall): 4
- Diarrhea, patients (Stratum I, overall): 3
- Dry skin, episodes (Stratum I, overall): 3(3)
- Dry skin, patients (Stratum I, overall): 3(3)
- Fatigue, episodes (Stratum I, overall): 10
- Fatigue, patients (Stratum I, overall): 9
- Gait disturbance, episodes (Stratum I, overall): 3(3)
- Gait disturbance, patients (Stratum I, overall): 3(3)
- Headache, episodes (Stratum I, overall): 7
- Headache, patients (Stratum I, overall): 4
- Hypokalemia, episodes (Stratum I, overall): 6
- Hypokalemia, patients (Stratum I, overall): 5
- Lymphocyte count decreased, episodes (Stratum I, overall): 51
- Lymphocyte count decreased, patients (Stratum I, overall): 13
- Mucositis oral, episodes (Stratum I, overall): 10
- Mucositis oral, patients (Stratum I, overall): 3
- Muscle weakness left-sided, episodes (Stratum I, overall): 3(3)
- Muscle weakness left-sided, patients (Stratum I, overall): 3(3)
- Nausea, episodes (Stratum I, overall): 6
- Nausea, patients (Stratum I, overall): 3
- Neutrophil count decreased, episodes (Stratum I, overall): 64
- Neutrophil count decreased, patients (Stratum I, overall): 15
- Platelet count decreased, episodes (Stratum I, overall): 28
- Platelet count decreased, patients (Stratum I, overall): 10
- Vomiting, episodes (Stratum I, overall): 7
- Vomiting, patients (Stratum I, overall): 5
- White blood cell decreased, episodes (Stratum I, overall): 70
- White blood cell decreased, patients (Stratum I, overall): 17
- Alanine aminotransferase increased, episodes (Stratum II, grade 1): 3
- Alanine aminotransferase increased, patients (Stratum II, grade 1): 2
- Anemia, episodes (Stratum II, grade 1): 17
- Anemia, patients (Stratum II, grade 1): 9
- Anorexia, episodes (Stratum II, grade 1): 3(3)
- Anorexia, patients (Stratum II, grade 1): 3(3)
- Aspartate aminotransferase increased, episodes (Stratum II, grade 1): 2(2)
- Aspartate aminotransferase increased, patients (Stratum II, grade 1): 2(2)
- Constipation, episodes (Stratum II, grade 1): 1(1)
- Constipation, patients (Stratum II, grade 1): 1(1)
- Dizziness, episodes (Stratum II, grade 1): 3
- Dizziness, patients (Stratum II, grade 1): 2
- Electrocardiogram qt corrected interval prolonged, episodes (Stratum II, grade 1): 3
- Electrocardiogram qt corrected interval prolonged, patients (Stratum II, grade 1): 2
- Fatigue, episodes (Stratum II, grade 1): 2(2)
- Fatigue, patients (Stratum II, grade 1): 2(2)
- Headache, episodes (Stratum II, grade 1): 1(1)
- Headache, patients (Stratum II, grade 1): 1(1)
- Hypercalcemia, episodes (Stratum II, grade 1): 2(2)
- Hypercalcemia, patients (Stratum II, grade 1): 2(2)
- Hyperkalemia, episodes (Stratum II, grade 1): 2(2)
- Hyperkalemia, patients (Stratum II, grade 1): 2(2)
- Hypokalemia, episodes (Stratum II, grade 1): 3(3)
- Hypokalemia, patients (Stratum II, grade 1): 3(3)
- Lymphocyte count decreased, episodes (Stratum II, grade 1): 10
- Lymphocyte count decreased, patients (Stratum II, grade 1): 5
- Mucositis oral, episodes (Stratum II, grade 1): 1(1)
- Mucositis oral, patients (Stratum II, grade 1): 1(1)
- Neutrophil count decreased, episodes (Stratum II, grade 1): 6
- Neutrophil count decreased, patients (Stratum II, grade 1): 4
- Pain, episodes (Stratum II, grade 1): 1(1)
- Pain, patients (Stratum II, grade 1): 1(1)
- Platelet count decreased, episodes (Stratum II, grade 1): 16
- Platelet count decreased, patients (Stratum II, grade 1): 8
- Vomiting, episodes (Stratum II, grade 1): 5
- Vomiting, patients (Stratum II, grade 1): 3
- White blood cell decreased, episodes (Stratum II, grade 1): 13
- White blood cell decreased, patients (Stratum II, grade 1): 5
- Anemia, episodes (Stratum II, grade 2): 3(3)
- Anemia, patients (Stratum II, grade 2): 3(3)
- Constipation, episodes (Stratum II, grade 2): 2
- Constipation, patients (Stratum II, grade 2): 1
- Dizziness, episodes (Stratum II, grade 2): 1(1)
- Dizziness, patients (Stratum II, grade 2): 1(1)
- Fatigue, episodes (Stratum II, grade 2): 2(2)
- Fatigue, patients (Stratum II, grade 2): 2(2)
- Headache, episodes (Stratum II, grade 2): 1(1)
- Headache, patients (Stratum II, grade 2): 1(1)
- Lymphocyte count decreased, episodes (Stratum II, grade 2): 6
- Lymphocyte count decreased, patients (Stratum II, grade 2): 3
- Mucositis oral, episodes (Stratum II, grade 2): 1(1)
- Mucositis oral, patients (Stratum II, grade 2): 1(1)
- Neutrophil count decreased, episodes (Stratum II, grade 2): 19
- Neutrophil count decreased, patients (Stratum II, grade 2): 10
- Platelet count decreased, episodes (Stratum II, grade 2): 5
- Platelet count decreased, patients (Stratum II, grade 2): 3
- White blood cell decreased, episodes (Stratum II, grade 2): 18
- White blood cell decreased, patients (Stratum II, grade 2): 9
- Headache, episodes (Stratum II, grade 3): 2(2)
- Headache, patients (Stratum II, grade 3): 2(2)
- Lymphocyte count decreased, episodes (Stratum II, grade 3): 3(3)
- Lymphocyte count decreased, patients (Stratum II, grade 3): 3(3)
- Neutrophil count decreased, episodes (Stratum II, grade 3): 13
- Neutrophil count decreased, patients (Stratum II, grade 3): 9
- Pain, episodes (Stratum II, grade 3): 1(1)
- Pain, patients (Stratum II, grade 3): 1(1)
- Platelet count decreased, episodes (Stratum II, grade 3): 2(2)
- Platelet count decreased, patients (Stratum II, grade 3): 2(2)
- Seizure, episodes (Stratum II, grade 3): 3(3)
- Seizure, patients (Stratum II, grade 3): 3(3)
- Vomiting, episodes (Stratum II, grade 3): 1(1)
- Vomiting, patients (Stratum II, grade 3): 1(1)
- White blood cell decreased, episodes (Stratum II, grade 3): 7
- White blood cell decreased, patients (Stratum II, grade 3): 6
- Neutrophil count decreased, episodes (Stratum II, grade 4): 1(1)
- Neutrophil count decreased, patients (Stratum II, grade 4): 1(1)
- Platelet count decreased, episodes (Stratum II, grade 4): 1(1)
- Platelet count decreased, patients (Stratum II, grade 4): 1(1)
- Alanine aminotransferase increased, episodes (Stratum II, overall): 3
- Alanine aminotransferase increased, patients (Stratum II, overall): 2
- Anemia, episodes (Stratum II, overall): 20
- Anemia, patients (Stratum II, overall): 10
- Anorexia, episodes (Stratum II, overall): 3(3)
- Anorexia, patients (Stratum II, overall): 3(3)
- Aspartate aminotransferase increased, episodes (Stratum II, overall): 2(2)
- Aspartate aminotransferase increased, patients (Stratum II, overall): 2(2)
- Constipation, episodes (Stratum II, overall): 3
- Constipation, patients (Stratum II, overall): 2
- Dizziness, episodes (Stratum II, overall): 4
- Dizziness, patients (Stratum II, overall): 3
- Electrocardiogram qt corrected interval prolonged, episodes (Stratum II, overall): 3
- Electrocardiogram qt corrected interval prolonged, patients (Stratum II, overall): 2
- Fatigue, episodes (Stratum II, overall): 4(4)
- Fatigue, patients (Stratum II, overall): 4(4)
- Headache, episodes (Stratum II, overall): 4(4)
- Headache, patients (Stratum II, overall): 4(4)
- Hypercalcemia, episodes (Stratum II, overall): 2(2)
- Hypercalcemia, patients (Stratum II, overall): 2(2)
- Hyperkalemia, episodes (Stratum II, overall): 2(2)
- Hyperkalemia, patients (Stratum II, overall): 2(2)
- Hypokalemia, episodes (Stratum II, overall): 3(3)
- Hypokalemia, patients (Stratum II, overall): 3(3)
- Lymphocyte count decreased, episodes (Stratum II, overall): 19
- Lymphocyte count decreased, patients (Stratum II, overall): 7
- Mucositis oral, episodes (Stratum II, overall): 2(2)
- Mucositis oral, patients (Stratum II, overall): 2(2)
- Neutrophil count decreased, episodes (Stratum II, overall): 39
- Neutrophil count decreased, patients (Stratum II, overall): 11
- Pain, episodes (Stratum II, overall): 2(2)
- Pain, patients (Stratum II, overall): 2(2)
- Platelet count decreased, episodes (Stratum II, overall): 24
- Platelet count decreased, patients (Stratum II, overall): 8
- Seizure, episodes (Stratum II, overall): 3(3)
- Seizure, patients (Stratum II, overall): 3(3)
- Vomiting, episodes (Stratum II, overall): 6
- Vomiting, patients (Stratum II, overall): 4
- White blood cell decreased, episodes (Stratum II, overall): 38
- White blood cell decreased, patients (Stratum II, overall): 11
